Source: doi:10.1101/2024.08.19.608619, “Discovery of potent SARS-CoV-2 nsp3 macrodomain inhibitors uncovers lack of translation to cellular antiviral response” (bioRxiv, 2024)
Where two headings read alike, the source gives them in different places.

Experiments:
[1] = target: T1, SARS-CoV-2 nsp3-mac1 (Severe acute respiratory syndrome coronavirus 2, UniProt P0DTD1); test: biochemical; assay type: biochemical; conditions: SARS-CoV-2 nsp3 macrodomain TR-FRET single point
[2] = target: T1, SARS-CoV-2 nsp3-mac1; test: biochemical; parameters: SARS-CoV-2 nsp3 macrodomain TR-FRET single point, per cent inhibition, n=2
[3] = read-out: perc_inhibition_mean, batch_name=ASAP-0000325-001
[4] = read-out: perc_inhibition_mean, batch_name=ASAP-0000335-001
[5] = read-out: perc_inhibition_mean, batch_name=ASAP-0000463-001
[6] = read-out: perc_inhibition_mean, batch_name=ASAP-0000264-001
[7] = read-out: perc_inhibition_mean, batch_name=ASAP-0000356-001
[8] = read-out: perc_inhibition_mean, batch_name=ASAP-0000407-001
[9] = read-out: perc_inhibition_mean, batch_name=ASAP-0000296-001
[10] = read-out: perc_inhibition_mean, batch_name=ASAP-0000462-001
[11] = read-out: perc_inhibition_mean, batch_name=ASAP-0000347-001

N[C@@H]1CCC[C@@H](C(=O)N(CCC(=O)N2CCNCC2)Cc2cccc(Cl)c2)C1 [ASAP-0000325]
perc_inhibition_mean ([1]; concentration 49.75 uM, n=2): -0.755%
perc_inhibition_mean ([1]; concentration 99.5 uM, n=2): -1.468%
inhibition at 49.75 µM [2, 3]: -0.755%
inhibition at 99.5 µM [2, 3]: -1.47%

Cc1ncc(NCc2ncn(C)c2Cl)cc1C(N)=O [ASAP-0000103]
perc_inhibition_mean ([1]; concentration 50.0 uM): 2.409%
inhibition at 50 µM ([2]; read-out: perc_inhibition_mean, batch_name=ASAP-0000103-001): 2.41%

CC(C)NC(=O)[C@@H]1CCCN(c2ncnc3[nH]ccc23)C1 [ASAP-0000008]
perc_inhibition_mean ([1]; concentration 50.0 uM): 1.78%
inhibition at 50 µM ([2]; read-out: perc_inhibition_mean, batch_name=ASAP-0000008-001): 1.78%

O=C(CCN(Cc1cccc(Cl)c1)C(=O)c1ccc(F)cn1)N1CCNCC1 [ASAP-0000335]
perc_inhibition_mean ([1]; concentration 49.75 uM, n=2): 6.758%
perc_inhibition_mean ([1]; concentration 99.5 uM, n=2): 6.737%
inhibition at 49.75 µM [2, 4]: 6.76%
inhibition at 99.5 µM [2, 4]: 6.74%

Cn1nc(NCc2cc3c(=O)[nH]ccc3o2)c2nccnc21 [ASAP-0000095]
perc_inhibition_mean ([1]; concentration 50.0 uM): -1.007%
inhibition at 50 µM ([2]; read-out: perc_inhibition_mean, batch_name=ASAP-0000095-001): -1.01%

Cn1cc([C@@H](Nc2ncnc3[nH]ccc23)C2CCC2)cn1 [ASAP-0000463]
perc_inhibition_mean ([1]; concentration 49.75 uM): 78.069%
perc_inhibition_mean ([1]; concentration 99.5 uM): 91.032%
inhibition at 49.75 µM [2, 5]: 78.1%
inhibition at 99.5 µM [2, 5]: 91%

C[C@@H](O)[C@@H]1CN(C(=O)c2ncnc3[nH]ccc23)CCO1 [ASAP-0000073]
perc_inhibition_mean ([1]; concentration 50.0 uM): -3.131%
inhibition at 50 µM ([2]; read-out: perc_inhibition_mean, batch_name=ASAP-0000073-001): -3.13%

Cc1nc(NC(=O)c2nccc3ccncc23)c2cc[nH]c2n1 [ASAP-0000264]
perc_inhibition_mean ([1]; concentration 50.0 uM, n=2): -5.834%
perc_inhibition_mean ([1]; concentration 100.0 uM, n=2): 2.611%
inhibition at 50 µM [2, 6]: -5.83%
inhibition at 100 µM [2, 6]: 2.61%

CN(C)[C@@H]1CCCN(C(=O)c2cnc3c(c2)c(=O)[nH]c(=O)n3C)CC1 [ASAP-0000058]
perc_inhibition_mean ([1]; concentration 50.0 uM): -8.971%
inhibition at 50 µM ([2]; read-out: perc_inhibition_mean, batch_name=ASAP-0000058-001): -8.97%

O=C(Nc1cnc2[nH]ncc2c1)c1ccc(Oc2cccc(Br)c2)nc1 [ASAP-0000023]
perc_inhibition_mean ([1]; concentration 50.0 uM): -0.183%
inhibition at 50 µM ([2]; read-out: perc_inhibition_mean, batch_name=ASAP-0000023-001): -0.183%

NC1(C(=O)N(CCC(=O)N2CCNCC2)Cc2cccc(Cl)c2)CC(F)(F)C1 [ASAP-0000356]
perc_inhibition_mean ([1]; concentration 49.75 uM): -3.48%
perc_inhibition_mean ([1]; concentration 99.5 uM): -1.174%
inhibition at 49.75 µM [2, 7]: -3.48%
inhibition at 99.5 µM [2, 7]: -1.17%

c1ccc2sc(CNc3ncnc4[nH]ccc34)nc2c1 [ASAP-0000036]
perc_inhibition_mean ([1]; concentration 50.0 uM): -0.671%
inhibition at 50 µM ([2]; read-out: perc_inhibition_mean, batch_name=ASAP-0000036-001): -0.671%

Cc1nc(C)c(CC(=O)Nc2cnc3[nH]ncc3c2)c(=O)[nH]1 [ASAP-0000041]
perc_inhibition_mean ([1]; concentration 50.0 uM): 4.825%
inhibition at 50 µM ([2]; read-out: perc_inhibition_mean, batch_name=ASAP-0000041-001): 4.83%

C[C@@H](NC(=O)c1cnn2ccc(C3CCN(C(=O)c4ccccc4)CC3)cc12)c1cc[nH]n1 [ASAP-0000407]
perc_inhibition_mean ([1]; concentration 49.75 uM): -4.99%
perc_inhibition_mean ([1]; concentration 99.5 uM): -2.773%
inhibition at 49.75 µM [2, 8]: -4.99%
inhibition at 99.5 µM [2, 8]: -2.77%

O=C(Nc1ccccc1)Nc1ccc(C(=O)N[C@H]2CC[C@H](CO)CC2)cc1 [ASAP-0000296]
perc_inhibition_mean ([1]; concentration 49.75 uM, n=2): -0.639%
perc_inhibition_mean ([1]; concentration 99.5 uM, n=2): -2.577%
inhibition at 49.75 µM [2, 9]: -0.639%
inhibition at 99.5 µM [2, 9]: -2.58%

CC(C)[C@@H](Nc1ncnc2[nH]ccc12)C(N)=O [ASAP-0000462]
perc_inhibition_mean ([1]; concentration 49.75 uM): 64.403%
perc_inhibition_mean ([1]; concentration 99.5 uM): 77.698%
inhibition at 49.75 µM [2, 10]: 64.4%
inhibition at 99.5 µM [2, 10]: 77.7%

COc1ccccc1CN(C[C@@H]1CCCO1)c1ncnc2[nH]ccc12 [ASAP-0000107]
perc_inhibition_mean ([1]; concentration 50.0 uM): 4.74%
inhibition at 50 µM ([2]; read-out: perc_inhibition_mean, batch_name=ASAP-0000107-001): 4.74%

OCc1cn([C@@H]2CCCN(c3ncnc4[nH]ccc34)C2)nn1 [ASAP-0000047]
perc_inhibition_mean ([1]; concentration 50.0 uM): -0.682%
inhibition at 50 µM ([2]; read-out: perc_inhibition_mean, batch_name=ASAP-0000047-001): -0.682%

O=C(N[C@@H]1CCCNC1=O)c1cnn2ccc(C3CCN(C(=O)c4ccccc4)CC3)cc12 [ASAP-0000347]
perc_inhibition_mean ([1]; concentration 49.75 uM, n=2): -3.161%
perc_inhibition_mean ([1]; concentration 99.5 uM, n=2): -4.869%
inhibition at 49.75 µM [2, 11]: -3.16%
inhibition at 99.5 µM [2, 11]: -4.87%
